This note sets out measurements from US7687535B2, “Substituted 3-sulfur indoles” (AstraZeneca AB, priority 2003, dated 2010).

The first data set has as its target T1, rhCRTh2 (Homo sapiens, UniProt Q9Y5Y4).
T1 construct: expressed in transfected cells; host or cells: HEK cells (membrane preparation)
T1 sequence (Q9Y5Y4 1-395): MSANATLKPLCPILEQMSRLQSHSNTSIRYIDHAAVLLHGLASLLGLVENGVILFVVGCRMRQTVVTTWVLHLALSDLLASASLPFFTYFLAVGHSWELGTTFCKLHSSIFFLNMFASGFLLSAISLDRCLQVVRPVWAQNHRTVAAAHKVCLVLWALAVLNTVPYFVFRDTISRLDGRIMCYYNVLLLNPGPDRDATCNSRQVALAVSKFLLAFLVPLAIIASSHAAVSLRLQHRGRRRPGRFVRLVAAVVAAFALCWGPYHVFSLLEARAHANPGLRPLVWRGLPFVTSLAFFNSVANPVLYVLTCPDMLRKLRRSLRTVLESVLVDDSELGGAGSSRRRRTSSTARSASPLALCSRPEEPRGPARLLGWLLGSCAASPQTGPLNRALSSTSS
Briefly: Ligand Binding Assay ([3H]PGD2 SPA, HEK cell membranes). As to conditions: [3H]PGD2 binding to membranes of HEK cells expressing rhCRTh2/Gα16, SPA beads, 2 hours at room temperature. As to the method:
[^3H]PGD2 was purchased from Perkin Elmer Life Sciences with a specific activity of 100-210 Ci/mmol. All other chemicals were of analytical grade.
HEK cells expressing rhCRTh2/Gα16 were routinely maintained in DMEM containing 10% Foetal Bovine Serum (HyClone), 1 mg/ml geneticin, 2 mM L-glutamine and 1% non-essential amino acids. For the preparation of membranes, the adherent transfected HEK cells were grown to confluence in two layer tissue culture factories (Fisher, catalogue number TKT-170-070E). Maximal levels of receptor expression were induced by addition of […] sodium butyrate for the last 18 hours of culture. The adherent cells were washed once with phosphate buffered saline (PBS, 50 ml per cell factory) and detached by the addition of 50 ml per cell factory of ice-cold membrane homogenisation buffer [20 mM HEPES (pH 7.4), 0.1 mM dithiothreitol, 1 mM EDTA, 0.1 mM phenyl methyl sulphonyl fluoride and 100 μg/ml bacitracin]. […] The final pellet was re-suspended in 4 ml of membrane homogenisation buffer per cell factory used and the protein content determined. […]
All assays were performed in Corning clear bottomed, white 96-well NBS plates (Fisher). […] (The optimum coating concentrations were determined for each batch of membranes) The beads were pelleted by centrifugation (800×g for 7 minutes at 4° C.), washed once with assay buffer (50 mM HEPES pH 7.4 containing 5 mM magnesium chloride) and finally re-suspended in assay buffer at a bead concentration of 10 mg/ml.
Each assay contained 20 μl of 6.25 nM [^3H]PGD2, 20 μl membrane saturated SPA beads both in assay buffer and 10 μl of compound solution or 13,14-dihydro-15-keto prostaglandin D2 (DK-PGD2, for determination of non-specific binding, Cayman chemical company). […] The assay plate was incubated at room temperature for 2 hours and counted on a Wallac Microbeta liquid scintillation counter (1 minute per well).
Take `Cc1noc(C)c1-c1ccc2c(c1)c(Sc1ccc(S(C)(=O)=O)cc1)c(C)n2CC(=O)O` [Example 34, 5-(3,5-Dimethyl-4-isoxazolyl)-2-methyl-3-[[4-(methylsulfonyl)phenyl]thio]-1H-indole-1-acetic acid]: the IC50 was 0.398 nM. Same read-out and setting: to `CCN(C(C)=O)c1cccc2c1c(Sc1ccc(Cl)cc1)c(C)n2CC(=O)O` [Example 14, 4-(Acetylethylamino)-3-[(4-chlorophenyl)thio]-2-methyl-1H-indole-1-acetic acid] belongs 224 nM; to `Cc1c(Sc2ccc(S(C)(=O)=O)cc2)c2c(-c3cccs3)cccc2n1CC(=O)O` [Example 26, 2-Methyl-3-[[4-(methylsulfonyl)phenyl]thio]-4-(2-thiophenyl)-1H-indole-1-acetic acid], 4.47 nM.

Tested on in another data set: not given
Experiment: not given
Conditions: not given
For the molecule `Cc1c(Sc2ccc(Cl)cc2)c2cc(NS(C)(=O)=O)ccc2n1CC(=O)O` [Example 7, 3-[(4-Chlorophenyl)thio]-2-methyl-5-[(methylsulfonyl)amino]-1H-indole-1-acetic acid], the melting point is 214 °C. Molecule `Cc1c(Sc2cccc(Cl)c2)c2cc(NS(C)(=O)=O)ccc2n1CC(=O)O` [Example 6, 3-[(3-Chlorophenyl)thio]-2-methyl-5-[(methylsulfonyl)amino]-1H-indole-1-acetic acid] displayed a melting point of 224 °C. In turn, `Cc1c(Sc2cccc3cccnc23)c2cc(NS(C)(=O)=O)ccc2n1CC(=O)O` [Example 11, 3-[(8-Quinolinyl)thio]-2-methyl-5-[(methylsulfonyl)amino]-1H-indole-1-acetic acid] gave a melting point of 257 °C.

Regarding `Cc1c(Sc2ccccc2Cl)c2cc(NS(C)(=O)=O)ccc2n1CC(=O)O` [Example 5, 3-[(2-Chlorophenyl)thio]-2-methyl-5-[(methylsulfonyl)amino]-1H-indole-1-acetic acid], the melting point amounted to 212 °C. Still for that read-out and setting: under `Cc1c(Sc2ccccc2C(F)(F)F)c2cc(NS(C)(=O)=O)ccc2n1CC(=O)O` [Example 10, 3-[(2-Trifluoromethylphenyl)thio]-2-methyl-5-[(methylsulfonyl)amino]-1H-indole-1-acetic acid] stands 207 °C. `Cc1c(Sc2ccc(Cl)cc2)c2c(NC(=O)c3ccccc3)cccc2n1CC(=O)O` [Example 16, 4-(Benzoylamino)-3-[(4-chlorophenyl)thio]-2-methyl-1H-indole-1-acetic acid]: the melting point lay in the range of 213 to 215 °C. On to `COc1cccc(Sc2c(C)n(CC(=O)O)c3ccc(NS(C)(=O)=O)cc23)c1` [Example 8, 3-[(3-Methoxyphenyl)thio]-2-methyl-5-[(methylsulfonyl)amino]-1H-indole-1-acetic acid], for which the melting point is 292 °C.

Turning to `COc1ccc(Sc2c(C)n(CC(=O)O)c3ccc(NS(C)(=O)=O)cc23)cc1` [Example 9, 3-[(4-Methoxyphenyl)thio]-2-methyl-5-[(methylsulfonyl)amino]-1H-indole-1-acetic acid], the melting point was 215 °C. For the molecule `Cc1c(Sc2ccccc2S(C)(=O)=O)c2cc(NS(C)(=O)=O)ccc2n1CC(=O)O` [Example 31, 2-Methyl-5-[(methylsulfonyl)amino]-3-[[2-(methylsulfonyl)phenyl]thio]-1H-indole-1-acetic acid], the melting point is 227 to 230 °C. `Cc1c(Sc2ccc(Cl)cc2)c2c(NC(=O)C3CC3)cccc2n1CC(=O)O` [Example 15] displayed a melting point of 183 to 185 °C. In turn, `Cc1c(Sc2cccc(S(C)(=O)=O)c2)c2cc(NS(C)(=O)=O)ccc2n1CC(=O)O` [Example 30, 2-Methyl-5-[(methylsulfonyl)amino]-3-[[3-(methylsulfonyl)phenyl]thio]-1H-indole-1-acetic acid] returned a melting point of 233 to 236 °C. With `Cc1c(Sc2ccc(S(C)(=O)=O)cc2)c2cc(-c3cncnc3)ccc2n1CC(=O)O` [Example 32], the melting point is greater than 290 °C. Turning to `Cc1c(Sc2ccccc2C(C)C)c2cc(NS(C)(=O)=O)ccc2n1CC(=O)O` [Example 12, 3-[(2-(Methylethyl)phenyl)thio]-2-methyl-5-[(methylsulfonyl)amino]-1H-indole-1-acetic acid], the melting point turned out to be 160 °C.
